The nature of data set [1]: Antibiotic plasma level and bioavailability after oral or enteral (duodenal) administration, rats (bioassay with E. coli 1346). From the text: Eine erste in vivo-Testanordnung war wie folgt: Als Versuchsobjekte wurden Menschen und Ratten eingesetzt, die ein β-Lactam-Antibiotikum sowohl oral als auch enteral erhielten. Für die orale Verabreichung wurden die Antibiotika in destilliertem Wasser oder in einem Träger wie Witepsol H15 allein oder zusammen mit CAPMUL MCM 90 und einem Resorptionsverstärker wie Natriumchenodeoxycholat (NaCDC) oder Chenodeoxycholsäure oder Natriumdeoxycholat (NaDC) oder Deoxycholsäure verwendet. In de gleichen Weise wurden die Antibiotika für die enterale Verabreichung hergerichtet und duodenal verabreicht.
Plasmaspiegel der Antibiotika wurden im Blut aus der Armvene des Menschen und der Schwanzvene der Ratte nach Zentrifugieren bestimmt. Die Antibiotika-enthaltenden Blutproben von Ratten wurden durch Bioassay auf einer Nunc-Platte analysiert; E. coli 1346, über Nacht auf einer Antibiotika--Agar Nr. 1-Kultur kultiviert wurde mit Kochsalzlösung gewaschen, wobei eine Suspension mit 90% Durchlässigkeit auf einem Bausch und Lomb-Spectronic 20 (650 nm) hergestellt wurde. 16 ml der erhaltenen Suspension wurden zu 600 ml geschmolzenem Antibiotika-Agar Nr. 1 gegeben, 200 ml des beimpften Agars wurden auf jede Nunc-Platte (243 × 243 ×18 mm) gegeben. Die Agarplatten wurden ausgestanzt, so dass […] Proben in jede Höhlung gegeben werden konnten.
Bei den vorstehend beschriebenen Versuchen wurden Lösungen des Wirkstoffs in destilliertem Wasser bei Raumtemperatur hergestellt und sofern ein Resorptionsverstärker anwesend war, dieser in feinverteilter Form langsam eingeführt, wobei eine feinteilige Suspension erhalten wurde.

The subject of the next data set is Ratten. In words: Insulin effect on blood glucose level after injection into the duodenum of fasted, anaesthetised rats. Format: in vivo. Conditions: presence of NaCDC in the insulin preparations, summary of Tabelle 2. An excerpt: In dieser Versuchsanordnung wurden Ratten über Nacht fasten gelassen, anästhesiert und der Wirkstoff durch Injektion in das Duodenum verabreicht. Blutproben aus dem Schwanz wurden zu verschiedenen Zeiten entnommen und auf chemisch vorbehandeltem Papier (Chemistrip bg. Boehringer Mannheim Diagnostics) mittels eines Accucheck bg Blutglukosemonitors (Biodynamics, Baltimore) ausgewertet.

The mark [2] stands for this setting: given with Natriumchenodeoxycholat instead of Wasser, summary of Tabelle 1.

Structures are written as SMILES.

For the compound `NC(=O)OC[C@@H]1[C@H](NC(=O)/C(=N\OCC(=O)O)c2csc(N)n2)C(=O)N1S(=O)(=O)O` [Carumonam], in data set [1] (setting [2]), the “Spiegel des Antibiotikums” value is “signifikant höhere Spiegel”.

In the case of `C[C@H](CCC(=O)O)[C@H]1CC[C@H]2[C@@H]3[C@H](O)C[C@@H]4C[C@H](O)CC[C@]4(C)[C@H]3CC[C@]12C` [NaCDC, Natriumchenodeoxycholat], the Blutzucker result in the data set on Ratten is “signifikanten zeitweisen Verminderung des Blutzuckers”.

For `CO[C@@]1(NC(=O)C(C(=O)O)c2ccc(O)cc2)C(=O)N2C(C(=O)O)=C(CSc3nnnn3C)CO[C@@H]21` (stereo partly drawn) [Moxalactam], in data set [1] (in vivo), the “Spiegel des Antibiotikums” value is on record as “signifikant höhere Spiegel”.

Take `CO/N=C(\C(=O)N[C@@H]1C(=O)N2C(C(=O)O)=C(CSc3nc(=O)c(=O)[nH]n3C)CS[C@H]12)c1csc(N)n1` [Ceftriaxon]: in data set [1] (in vivo), the “Resorption von Ceftriaxon” value is given as “synergistisch verstärkt”, the “Spiegel des Antibiotikums” value was “signifikant höhere Spiegel” and the “Spiegel von Ceftriaxon” value was “erhöht”.

On to `CC1(C)S[C@@H]2[C@H](/N=C/N3CCCCCC3)C(=O)N2[C@H]1C(=O)O` [Amdinocillin], for which the “Spiegel des Antibiotikums” value in data set [1] (in vivo) was “signifikant höhere Spiegel”.

For the compound `Cn1nnnc1SCC1=C(C(=O)O)N2C(=O)[C@@H](NC(=O)[C@H](O)c3ccccc3)[C@H]2SC1` [Cefamandol], the “Spiegel des Antibiotikums” value in data set [1] (setting [2]) is listed as “signifikant höhere Spiegel”.

Regarding `C[C@@H](O)[C@H]1C(=O)N2C(C(=O)O)=C(SCCN)C[C@H]12` [Thienamycin], the “Spiegel des Antibiotikums” value in data set [1] (in vivo) is recorded as “signifikant höhere Spiegel”.

These data come from patent publication EP0263493A2, “Pharmaceutic preparation to improve the gastro-intestinal resorption” (priority 1986, dated 1988).
